Read-outs that look alike come from different tables or passages of the source.
Tests used:
hRORγ = target: T1, hRORγ (Homo sapiens, UniProt P51449); test: protein thermal stability shift assay (TSA)
T1 sequence (P51449 1-518): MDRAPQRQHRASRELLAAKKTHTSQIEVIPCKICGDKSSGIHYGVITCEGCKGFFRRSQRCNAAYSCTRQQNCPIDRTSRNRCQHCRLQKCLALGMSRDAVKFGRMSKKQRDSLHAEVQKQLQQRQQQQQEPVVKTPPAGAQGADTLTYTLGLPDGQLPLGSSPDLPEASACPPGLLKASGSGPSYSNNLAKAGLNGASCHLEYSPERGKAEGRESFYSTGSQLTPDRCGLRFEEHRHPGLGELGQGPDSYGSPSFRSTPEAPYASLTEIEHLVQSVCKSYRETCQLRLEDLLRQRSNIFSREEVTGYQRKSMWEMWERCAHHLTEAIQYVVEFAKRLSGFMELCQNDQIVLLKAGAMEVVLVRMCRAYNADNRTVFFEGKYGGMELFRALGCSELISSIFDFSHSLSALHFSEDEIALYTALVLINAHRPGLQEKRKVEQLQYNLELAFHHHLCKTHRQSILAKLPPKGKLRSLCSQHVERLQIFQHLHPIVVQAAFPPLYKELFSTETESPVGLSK

RORγ = target: T2, RORγ (Homo sapiens, UniProt P51449); test: luciferase dual reporter gene assay, Gal4-RORγLBD in 293T cells
T2 sequence (P51449 269-508 limits assumed): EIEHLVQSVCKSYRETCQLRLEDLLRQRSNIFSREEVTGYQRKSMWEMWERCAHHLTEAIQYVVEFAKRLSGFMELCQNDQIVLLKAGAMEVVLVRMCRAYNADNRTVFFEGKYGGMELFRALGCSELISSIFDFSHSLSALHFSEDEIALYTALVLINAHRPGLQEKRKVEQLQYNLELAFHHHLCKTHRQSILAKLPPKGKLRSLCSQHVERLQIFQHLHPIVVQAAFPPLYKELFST

[1] = read-out: ΔTm (TSA detection technique), hRORγ 10 μM, compound 200 μM
[2] = IC50 (luciferase detection technique), RORγ transcriptional activity, Table 1
[3] = read-out: ΔTm (TSA detection technique)

Row | ΔTm at 200 µM (hRORγ; [1]) | IC50 (RORγ; [2]) | ΔTm at 200 µM (hRORγ; [3]) | IC50 (RORγ) | SMILES
1 | < 5 °C | < 100 nM | – | – | CCCCCn1c(-c2ccc(NC(=O)C(NC(C)=O)c3ccc(S(=O)(=O)CC)cc3)cc2)nc2ccc(C)cc21 (stereo not drawn) [Example 76, 2-acetylamino-2-(4-(ethylsulfonyl)phenyl)-N-(4-(6-methyl-1-pentyl-1H-benzo[d]imidazol-2-yl)phenyl)acetamide]
2 | > 10 °C | 1000 to 10000 nM | – | – | Cc1ccc(CS(=O)(=O)Nc2ccc(-c3nc4ccc(C)cc4s3)cc2)cc1 [Example 12, N-(4-(6-methylbenzo[d]thiazol-2-yl)phenyl)-1-(p-tolyl)methanesulfonamide]
3 | 5 to 10 °C | < 100 nM | – | – | CCS(=O)(=O)c1ccc(CC(=O)Nc2ccc(-c3nc4ccc(C)cc4n3Cc3ccc(C#N)cc3)cc2)cc1 [Example 49, N-(4-(1-(4-cyanobenzyl)-6-methyl-1H-benzo[d]imidazol-2-yl)phenyl)-2-(4-(ethylsulfonyl)phenyl)acetamide]
4 | 5 to 10 °C | < 100 nM | – | – | CCS(=O)(=O)c1ccc(CC(=O)Nc2ccc(-c3nc4ccc(C(=O)NC5CCCC5)cc4n3[C@H](C)c3ccc(C)cc3)cc2)cc1 [Example 70, (R)—N-cyclopentyl-2-(4-(2-(4-(ethylsulfonyl)phenyl)acetylamino)phenyl)-1-(1-(p-tolyl)ethyl)-1H-benzo[d]imidazol-6-formamide]
5 | 5 to 10 °C | < 100 nM | – | – | CCS(=O)(=O)c1ccc(CC(=O)Nc2ccc(-c3nc4cc(C(=O)NC5CCCC5)ccc4n3[C@H](C)c3ccc(C)cc3)cc2)cc1 [Example 72, (R)—N-cyclopentyl-2-(4-(2-(4-(ethylsulfonyl)phenyl)acetylamino)phenyl)-1-(1-(p-tolyl)ethyl)-1H-benzo[d]imidazol-5-formamide]
6 | – | – | < 5 °C | < 100 nM | CCS(=O)(=O)c1ccc(C(NC(C)=O)C(=O)Nc2ccc(-c3nc4ccc(C)cc4n3[C@@H](C)c3ccc(C)cc3)nc2)cc1 (stereo partly drawn) [Example 80, 2-acetylamino-2-(4-(ethylsulfonyl)phenyl)-N-(6-(6-methyl-1-((S)-1-(p-tolyl)ethyl)-1H-benzo[d]imidazol-2-yl)pyridin-3-yl)acetamide]
7 | > 10 °C | 1000 to 10000 nM | – | – | Cc1ccc2nc(-c3ccc(NS(=O)(=O)Cc4ccc(C#N)cc4)cc3)sc2c1 [Example 16, 1-(4-cyanophenyl)-N-(4-(6-methylbenzo[d]thiazol-2-yl)phenyl)methanesulfonamide]
8 | 5 to 10 °C | < 100 nM | – | – | CCS(=O)(=O)c1ccc(CC(=O)Nc2ccc(-c3nc4cc(Cl)ccc4n3Cc3ccccc3)cc2)cc1 [Example 53]
9 | > 10 °C | 10000 to 100000 nM | – | – | Cc1ccc2nc(-c3ccc(NS(=O)(=O)Cc4cccc(N)c4)cc3)sc2c1 [Example 24, 1-(3-aminophenyl)-N-(4-(6-methylbenzo[d]thiazol-2-yl)phenyl)methane sulfonamide]
10 | < 5 °C | 1000 to 10000 nM | – | – | CCS(=O)(=O)c1ccc(C(NC(C)=O)C(=O)Nc2ccc(-c3nc4cc(C(=O)NC(C)C)ccc4n3[C@H](C)c3ccc(C)cc3)nc2)cc1 (stereo partly drawn) [Example 83, 2-(5-(2-acetylamino-2-(4-(ethylsulfonyl)phenyl)acetylamino)pyridin-2-yl)-N-isopropyl-1-((R)-1-(p-tolyl)ethyl)-1H-benzo[d]imidazol-5-formamide]
11 | < 5 °C | < 100 nM | – | – | CCS(=O)(=O)c1ccc(C(NC(C)=O)C(=O)Nc2ccc(-c3nc4ccc(C)cc4n3[C@@H](C)c3ccc(C)cc3)cc2)cc1 (stereo partly drawn) [Example 73, 2-acetylamino-2-(4-(ethylsulfonyl)phenyl)-N-(4-(6-methyl-1-((S)-1-(p-tolyl)ethyl)-1H-benzo[d]imidazol-2-yl)phenyl)acetamide]
12 | – | 100 to 1000 nM | – | – | CCS(=O)(=O)c1ccc(C(NC(C)=O)C(=O)Nc2ccc(-c3nc4ccc(C)cc4n3[C@@H](C)c3ccc(C)cc3)cc2)cc1 (single isomer, unassigned) [Example 75]
13 | 5 to 10 °C | 100 to 1000 nM | – | – | CCS(=O)(=O)c1ccc(CC(=O)Nc2ccc(-c3nc4ccc(C)cc4s3)c(Cl)c2)cc1 [Example 29, N-(3-chloro-4-(6-methylbenzo[d]thiazol-2-yl)phenyl)-2-(4-(ethylsulfonyl)phenyl) acetamide]
14 | 5 to 10 °C | 1000 to 10000 nM | – | – | CCS(=O)(=O)c1ccc(C(NC(C)=O)C(=O)Nc2ccc(-c3nc4cc(C(=O)NC(C)C)ccc4n3[C@H](C)c3ccc(C)cc3)cc2)cc1 (stereo partly drawn) [Example 78, 2-(4-(2-acetylamino-2-(4-(ethylsulfonyl)phenyl)acetylamino)phenyl)-N-isopropyl-1-((R)-1-(p-tolyl)ethyl)-1H-benzo[d]imidazol-5-formamide]
15 | < 5 °C | 1000 to 10000 nM | – | – | Cc1ccc2nc(-c3ccc(NS(=O)(=O)c4ccc([N+](=O)[O-])cc4)cc3)sc2c1 [Example 5, N-(4-(6-methylbenzo[d]thiazol-2-yl)phenyl)-4-nitrobenzenesulfonamide]
16 | < 5 °C | < 100 nM | – | – | CCS(=O)(=O)c1ccc(C(NC(C)=O)C(=O)Nc2ccc(-c3nc4ccc(C)cc4n3[C@H](C)c3ccc(C)cc3)cc2)cc1 (stereo partly drawn) [Example 77, 2-acetylamino-2-(4-(ethylsulfonyl)phenyl)-N-(4-(6-methyl-1-((R)-1-(p-tolyl)ethyl)-1H-benzo[d]imidazopyridin-2-yl)phenyl)acetamide]
17 | – | – | < 5 °C | < 100 nM | CCCCCn1c(-c2ccc(NC(=O)C(NC(C)=O)c3ccc(S(=O)(=O)CC)cc3)cn2)nc2ccc(C)cc21 (stereo not drawn) [Example 81, 2-acetylamino-2-(4-(ethylsulfonyl)phenyl)-N-(6-(6-methyl-1-pentyl-1H-benzo[d]imidazol-2-yl)pyridin-3-yl)acetamide]
18 | 5 to 10 °C | 10000 to 100000 nM | – | – | CCS(=O)(=O)c1ccc(CC(=O)Nc2ccc(-c3nc4ccc(OC)cc4s3)cc2)cc1 [Example 31, 2-(4-(ethylsulfonyl)phenyl)-N-(4-(6-methoxybenzo[d]thiazol-2-yl)phenyl) acetamide]
19 | > 10 °C | 1000 to 10000 nM | – | – | CCS(=O)(=O)c1ccc(CC(=O)Nc2ccc(-c3nc4ccc(C)cc4[nH]3)cc2)cc1 [Example 87, 2-(4-(ethylsulfonyl)phenyl)-N-(4-(6-methyl-1H-benzo[d]imidazol-2-yl)phenyl)acetamide]
20 | – | – | > 10 °C | 10000 to 100000 nM | CCN1C(=O)c2cccc3c(S(=O)(=O)Nc4ccc(-c5nc6ccc(C)cc6s5)cc4)ccc1c23 [Example 11, 1-ethyl-N-(4-(6-methylbenzo[d]thiazol-2-yl)phenyl)-2-oxo-1,2-dihydrobenzo[cd]indol-6-sulfonamide]
21 | < 5 °C | < 100 nM | – | – | CCS(=O)(=O)c1ccc(CC(=O)Nc2ccc(-c3nc4ccc(Cl)cc4n3Cc3ccccc3)cc2)cc1 [Example 52]
22 | > 10 °C | 1000 to 10000 nM | – | – | Cc1cc(C)c(S(=O)(=O)Nc2ccc(-c3nc4ccc(C)cc4s3)cc2)c(C)c1 [Example 10, 2,4,6-trimethyl-N-(4-(6-methylbenzo[d]thiazol-2-yl)phenyl)benzenesulfonamide]
23 | – | – | < 5 °C | < 100 nM | CCS(=O)(=O)c1ccc(C(NC(C)=O)C(=O)Nc2ccc(-c3nc4ccc(C)cc4n3[C@H](C)c3ccc(C)cc3)nc2)cc1 (stereo partly drawn) [Example 82, 2-acetylamino-2-(4-(ethylsulfonyl)phenyl)-N-(6-(6-methyl-1-((R)-1-(p-tolyl)ethyl)-1H-benzo[d]imidazol-2-yl)pyridin-3-yl)acetamide]

— US20230219925A1, “BENZO FIVE-MEMBERED NITROGEN HETEROCYCLIC COMPOUND AND APPLICATION THEREOF” (GUANGZHOU INSTITUTES OF BIOMEDICINE AND HEALTH CHINESE …, priority 2020, published 2023)
